Values of other authors in patent publication US20200316043A1, “PHARMACEUTICAL COMPOSITION COMPRISING CLEVIDIPINE AND PROCESS FOR PREPARATION THEREOF” (Aurobindo Pharma Ltd., priority 2017, published 2020).

Tests used:
[1] = target: ileal and aortic smooth muscle and cardiac muscle (Homo sapiens, UniProt Q13936); conditions: EDTA treatment of ileal and aortic smooth muscle and cardiac muscle
ileal and aortic smooth muscle and cardiac muscle, sequence (Q13936 whole entry): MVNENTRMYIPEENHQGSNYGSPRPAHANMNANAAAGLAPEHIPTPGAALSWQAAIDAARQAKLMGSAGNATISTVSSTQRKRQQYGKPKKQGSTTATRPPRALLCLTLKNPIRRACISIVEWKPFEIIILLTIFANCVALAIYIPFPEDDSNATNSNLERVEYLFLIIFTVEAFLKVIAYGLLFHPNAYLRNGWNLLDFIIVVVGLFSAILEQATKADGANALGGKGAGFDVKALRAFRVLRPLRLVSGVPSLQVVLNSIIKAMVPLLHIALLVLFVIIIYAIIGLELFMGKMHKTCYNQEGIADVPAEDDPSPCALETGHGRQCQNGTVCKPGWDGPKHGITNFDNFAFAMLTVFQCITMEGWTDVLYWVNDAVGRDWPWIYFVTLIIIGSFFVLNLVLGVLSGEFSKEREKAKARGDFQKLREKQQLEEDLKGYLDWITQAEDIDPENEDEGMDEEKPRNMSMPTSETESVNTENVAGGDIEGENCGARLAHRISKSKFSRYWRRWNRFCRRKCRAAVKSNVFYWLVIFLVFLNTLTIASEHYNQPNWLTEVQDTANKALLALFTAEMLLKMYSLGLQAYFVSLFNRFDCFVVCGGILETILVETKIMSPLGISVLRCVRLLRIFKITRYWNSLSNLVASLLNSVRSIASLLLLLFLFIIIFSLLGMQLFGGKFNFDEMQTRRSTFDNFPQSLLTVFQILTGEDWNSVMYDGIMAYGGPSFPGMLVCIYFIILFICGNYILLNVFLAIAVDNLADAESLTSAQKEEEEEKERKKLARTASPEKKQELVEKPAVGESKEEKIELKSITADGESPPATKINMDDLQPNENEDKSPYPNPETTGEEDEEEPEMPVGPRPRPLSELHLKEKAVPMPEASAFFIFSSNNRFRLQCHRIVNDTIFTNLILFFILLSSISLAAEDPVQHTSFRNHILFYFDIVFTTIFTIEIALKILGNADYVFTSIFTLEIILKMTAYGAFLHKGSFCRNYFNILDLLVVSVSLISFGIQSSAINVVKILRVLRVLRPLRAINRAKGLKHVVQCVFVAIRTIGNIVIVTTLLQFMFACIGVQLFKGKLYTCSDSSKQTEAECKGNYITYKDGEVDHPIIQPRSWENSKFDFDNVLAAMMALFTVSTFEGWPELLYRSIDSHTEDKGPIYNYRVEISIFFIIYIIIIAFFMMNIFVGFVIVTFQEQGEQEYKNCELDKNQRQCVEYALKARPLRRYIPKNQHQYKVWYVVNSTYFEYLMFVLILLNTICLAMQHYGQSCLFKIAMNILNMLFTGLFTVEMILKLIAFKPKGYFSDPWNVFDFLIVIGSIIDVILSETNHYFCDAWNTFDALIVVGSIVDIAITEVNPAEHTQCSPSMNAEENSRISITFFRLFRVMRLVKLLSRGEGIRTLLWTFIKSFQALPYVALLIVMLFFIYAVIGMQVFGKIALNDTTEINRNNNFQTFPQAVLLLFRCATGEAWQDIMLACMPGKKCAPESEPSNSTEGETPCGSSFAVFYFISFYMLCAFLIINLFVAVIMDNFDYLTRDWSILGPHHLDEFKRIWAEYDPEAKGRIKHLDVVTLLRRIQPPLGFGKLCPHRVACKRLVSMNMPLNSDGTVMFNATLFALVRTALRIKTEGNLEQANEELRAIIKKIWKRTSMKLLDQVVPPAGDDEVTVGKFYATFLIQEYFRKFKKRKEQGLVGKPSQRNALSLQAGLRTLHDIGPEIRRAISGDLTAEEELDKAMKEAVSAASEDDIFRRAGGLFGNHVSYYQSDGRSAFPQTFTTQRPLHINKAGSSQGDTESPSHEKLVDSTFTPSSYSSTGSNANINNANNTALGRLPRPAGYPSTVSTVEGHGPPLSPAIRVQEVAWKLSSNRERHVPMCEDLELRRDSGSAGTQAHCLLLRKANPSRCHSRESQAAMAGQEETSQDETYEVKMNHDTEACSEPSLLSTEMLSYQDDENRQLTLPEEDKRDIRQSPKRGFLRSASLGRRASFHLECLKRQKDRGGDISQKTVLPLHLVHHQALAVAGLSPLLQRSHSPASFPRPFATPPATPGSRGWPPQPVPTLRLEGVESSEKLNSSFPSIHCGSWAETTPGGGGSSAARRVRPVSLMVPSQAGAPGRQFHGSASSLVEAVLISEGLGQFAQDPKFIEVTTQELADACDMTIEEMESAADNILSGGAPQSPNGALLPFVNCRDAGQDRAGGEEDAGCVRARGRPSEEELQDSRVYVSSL

| solubility in lipids | solubility in water | reduction of specific [3H] nitrendipine binding [1] | Compound |
| --- | --- | --- | --- |
| moderate to high | low |  | CCCC(=O)OCOC(=O)C1=C(C)NC(C)=C(C(=O)OC)C1c1cccc(Cl)c1Cl (stereo not drawn) [Clevidipine, butyroxymethyl methyl 4-(2′,3′dichlorophenyl)-1,4-dihydro-2,6-dimethyl-3,5-pyridinedicarboxylate] |
|  |  | 70-95% | O=C(O)CN(CCN(CC(=O)O)CC(=O)O)CC(=O)O [EDTA, Ethylene Diaminetetraacetic acid] |
